Test results as given in US20230047816A1 (priority 2018, published 2023).
pIC50: −log10 of the molar value.

Assays:
[1] = tested on: neurons; assay: Neuroprotection, protection factor, b-amyloid treatment; assay type: cell-based; conditions: Treatment beta-amyloid, 24 hours
Procedure: For NMDAR activation, neurons at 8 days in vitro were incubated 100 μM NMDA (plus 10 μM glycine) for 10 minutes. Neurons were then washed and further incubated in culture medium with the PFKFB3 inhibitors for 24 hours. For b-amyloid treatment, neurons at 8 days in vitro were incubated with […] b-amyloid plus the PFKFB3 inhibitors for 24 hours. The Protection factor was estimated as [AMC(beta-A)−AMC(DMSO)]/[AMC(beta-A)−AMC(Test article)] or [AMC(beta-A)−AMC(DMSO)]/[AMC(NMDA)−AMC(Test article)], where:
AMC(DMSO)—% dead neuron in case of DMSO treatment
AMC(beta—A)—% dead neuron in case of b—amyloid treatment
AMC(Test article)—% dead neuron in case of PFKFB3 inhibitors treatment.

[2] = target: Recombinant full length human PFKFB3 (Homo sapiens, UniProt Q16875); assay: PFKFB3 kinase activity assay (ADP production, ADP-Glo)
Chain of Recombinant full length human PFKFB3 (Q16875 whole entry): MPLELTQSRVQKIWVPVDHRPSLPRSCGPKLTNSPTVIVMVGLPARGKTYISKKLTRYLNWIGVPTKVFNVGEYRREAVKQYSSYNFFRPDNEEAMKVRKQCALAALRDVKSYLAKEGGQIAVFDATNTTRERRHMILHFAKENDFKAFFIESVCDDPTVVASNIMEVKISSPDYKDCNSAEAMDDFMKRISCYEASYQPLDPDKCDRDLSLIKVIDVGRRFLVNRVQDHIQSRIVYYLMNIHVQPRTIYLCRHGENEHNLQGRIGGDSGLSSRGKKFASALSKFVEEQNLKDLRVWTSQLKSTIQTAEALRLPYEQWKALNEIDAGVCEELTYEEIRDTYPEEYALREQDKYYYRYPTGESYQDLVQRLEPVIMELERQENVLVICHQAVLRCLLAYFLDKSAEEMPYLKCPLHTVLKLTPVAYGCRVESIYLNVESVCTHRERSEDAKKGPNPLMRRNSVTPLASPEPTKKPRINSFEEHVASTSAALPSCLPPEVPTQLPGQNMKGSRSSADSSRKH
Procedure: (§1) Recombinant full length human PFKFB3 (or PFKFB4) protein purified from Sf9 baculoviral system was acquired from SignalChem (Cat. #P323-30G or P324-30G). ATP, Fructose-6-Phosphate and other chemicals were from Sigma-Aldrich. The kinase activity of the PFKFB3 (PFKFB4) protein was detected by measuring production of ADP from ATP in the presence of the Fructose-6-Phosphate substrate. The kinase reactions were assembled in 384 well plates in a total volume of 25 μL. Test compounds were serially diluted in DMSO. Reactions were set up by first mixing test compounds with enzyme and pre-incubating for 15 min. The ATP and Fructose-6-Phosphate substrates were next added to initiate the kinase reactions.
(§2) The compounds of invention listed below in this example were tested at various concentrations (which also added 1% DMSO from compounds, to the final solution) as described below. The kinase reactions were allowed to proceed for 1 h at room temperature. Aliquots of the reaction mixtures (5 μL) were transferred to fresh white 384 well plates and mixed with 5 μL of the ADP-Glo reagent (Promega), followed by incubation for 30 min. The luminescent Kinase Detection reagent was added (10 μL) and, following additional incubation for 15 min, the plates were read on luminescence plate reader (Analyst HT). Positive (100%-inhibition) and negative (0%-inhibition) control samples were assembled in each assay plate and were used to calculate percent inhibition values of test compounds. All experiments were performed in duplicate.

[3] = target: Recombinant full length human PFKFB4 (Homo sapiens, UniProt Q16877); assay: PFKFB4 kinase activity assay (ADP production, ADP-Glo)
Chain of Recombinant full length human PFKFB4 (Q16877 whole entry): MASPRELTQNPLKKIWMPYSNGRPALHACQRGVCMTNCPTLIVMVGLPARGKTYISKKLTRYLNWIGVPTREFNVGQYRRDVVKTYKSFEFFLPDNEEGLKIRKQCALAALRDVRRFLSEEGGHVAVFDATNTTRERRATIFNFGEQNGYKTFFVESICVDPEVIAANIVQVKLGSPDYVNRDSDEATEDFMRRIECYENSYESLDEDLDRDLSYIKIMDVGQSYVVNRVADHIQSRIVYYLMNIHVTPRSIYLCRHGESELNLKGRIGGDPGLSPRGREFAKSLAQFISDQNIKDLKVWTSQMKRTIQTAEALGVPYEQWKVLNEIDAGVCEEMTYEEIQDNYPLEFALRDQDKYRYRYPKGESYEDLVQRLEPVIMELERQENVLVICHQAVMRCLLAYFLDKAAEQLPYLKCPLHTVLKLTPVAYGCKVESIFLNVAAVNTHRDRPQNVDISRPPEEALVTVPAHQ
Procedure: as §1, §2

Question: How did the Protection factors [1] turn out when `CC1(C)CCC(c2ccc(C(=O)O)c(NC(=O)c3cc(C(=O)O)c(O)cc3C(=O)O)c2)CC1` [2-{[2-carboxy-5-(4,4-dimethylcyclohexyl)phenyl]carbamoyl}-5-hydroxybenzene-1,4-dicarboxylic acid] was run?
Answer: Its Protection factors is 2.05.

Question: Which Protection factors [1] does the source give for `CC(C)OC(=O)c1ccc(-c2ccc(F)c(F)c2)cc1N1Cc2ccc(-c3cn[nH]n3)cc2C1=O` here?
Answer: The Protection factors was 1.43.

Question: With `O=C(O)c1ccc2c(c1)C(=O)N(c1cc(-c3ccc(Cl)c(F)c3)ccc1C(=O)O)C2=O` [Compound 143, 2-(4-Carboxy-4′-chloro-3′-fluoro[1,1′-biphenyl]-3-yl)-1,3-dioxo-2,3-dihydro-1H-isoindole-5-carboxylic acid] as the compound, how does the pIC50 [2] read?
Answer: The pIC50 was > 6.30.

Question: And the pIC50 [3]?
Answer: Its pIC50 is > 6.30.

Question: `O=C(O)c1ccc(-c2ccccc2)cc1N1C(=O)c2cc(Cl)c(-c3cnn[nH]3)cc2C1=O` [Compound 144c, 3-[5-Chloro-1,3-dioxo-6-(1H-1,2,3-triazol-5-yl)-2,3-dihydro-1H-isoindol-2-yl][1,1′-biphenyl]-4-carboxylic Acid] was tested. Which pIC50 [2] did it give?
Answer: The pIC50 was > 6.30.

Question: And the pIC50 [3]?
Answer: The pIC50 was > 6.30.

Question: With `O=C(O)c1ccc2c(c1)C(=O)N(c1cc(-c3ccc(F)c(F)c3)ccc1C(=O)O)C2=O` [Compound 138, 2-(4-Carboxy-3′,4′-difluoro[1,1′-biphenyl]-3-yl)-1,3-dioxo-2,3-dihydro-1H-isoindole-5-carboxylic acid] as the compound, how does the pIC50 [2] read?
Answer: Its pIC50 is > 6.30.

Question: What about the pIC50 [3] of the same compound?
Answer: Its pIC50 is > 6.30.

Question: How did the Protection factors [1] turn out when `O=C(O)c1ccc(-c2ccc(F)c(F)c2)cc1N1Cc2ccc(-c3cn[nH]n3)cc2C1=O` was run?
Answer: Its Protection factors is 12.17.

Question: `O=C(O)c1ccc2c(c1)C(=O)N(c1cc(-c3ccc(Cl)cc3Cl)ccc1C(=O)O)C2=O` was tested. Which Protection factors [1] did it give?
Answer: The Protection factors was 1.75.

Question: How did the Protection factors [1] turn out when `Cc1noc(C)c1Cn1cc(C#N)c2cc(Oc3ccc(NC(=O)[C@@H]4CCCN4)cc3)ccc21` [(2S)-N-[4-({3-cyano-1-[(3,5-dimethyl-1,2-oxazol-4-yl)methyl]-1H-indol-5-yl}oxy)phenyl]pyrrolidine-2-carboxamide] was run?
Answer: The Protection factors was 1.68.

Question: Which Protection factors [1] does the source give for `CCOC(=O)c1ccc(-c2ccc(F)c(F)c2)cc1N1Cc2ccc(-c3cn[nH]n3)cc2C1=O` here?
Answer: The Protection factors was 2.35.

Question: With `O=C(O)c1ccc(-c2ccc(F)c(F)c2)cc1N1C(=O)c2ccc(-c3c[nH]nn3)cc2C1=O` [Compound 82, 3′,4′-Difluoro-3-[1,3-dioxo-5-(1H-[1,2,3]triazol-4-yl)-1,3-dihydroisoindol-2-yl]biphenyl-4-carboxylic Acid] as the compound, how does the pIC50 [2] read?
Answer: The pIC50 was > 6.30.

Question: And the pIC50 [3]?
Answer: The pIC50 was > 6.30.

Question: `O=C(O)c1ccc(-c2ccc(F)c(F)c2)cc1N1C(=O)c2cc(Cl)c(-c3cnn[nH]3)cc2C1=O` [Compound 144b, 3-[5-Chloro-1,3-dioxo-6-(1H-1,2,3-triazol-5-yl)-2,3-dihydro-1H-isoindol-2-yl]-3′,4′-difluoro[1,1′-biphenyl]-4-carboxylic Acid] was tested. Which pIC50 [2] did it give?
Answer: The pIC50 was > 6.30.

Question: What about the pIC50 [3] of the same compound?
Answer: The pIC50 was > 6.30.

Question: For `O=C(O)c1cc2c(cc1O)C(=O)N(c1cc(-c3ccc(F)c(F)c3)ccc1C(=O)O)C2=O`, which Protection factors [1] is on record?
Answer: The Protection factors was 2.15.

Question: `O=C(O)c1ccc(-c2ccc(F)c(F)c2)cc1N1C(=O)c2cc(Cl)c(-c3cn[nH]n3)cc2C1=O` was tested. Which Protection factors [1] did it give?
Answer: Its Protection factors is 1.15.

Question: `O=C(O)c1ccc2c(c1)C(=O)N(c1ccc(-c3ccccc3)cc1C(=O)O)C2=O` [Compound 134, 2-(3-Carboxybiphenyl-4-yl)-1,3-dioxo-2,3-dihydro-1H-isoindole-5-carboxylic acid] was tested. Which pIC50 [2] did it give?
Answer: The pIC50 was > 6.30.

Question: And the pIC50 [3]?
Answer: The pIC50 was > 6.30.

Question: How did the pIC50 [2] turn out when `CCOC(=O)c1ccc(-c2ccc(F)c(F)c2)cc1N1Cc2ccc(-c3cnn[nH]3)cc2C1=O` [compound 166, ethyl 3′,4′-difluoro-3-[1-oxo-6-(1H-1,2,3-triazol-5-yl)-2,3-dihydro-1H-isoindol-2-yl][1,1′-biphenyl]-4-carboxylate] was run?
Answer: Its pIC50 is > 4.70.

Question: And the pIC50 [3]?
Answer: Its pIC50 is > 4.70.

Question: Which Protection factors [1] does the source give for `CC(C)Cn1cc(C#N)c2cc(Oc3ccc(NC(=O)[C@@H]4CCCN4)cc3)ccc21` [(2S)-N-(4-{[3-cyano-1-(2-methylpropyl)-1H-indol-5-yl]oxy]phenyl)pyrrolidine-2-carboxamide] here?
Answer: The Protection factors was 1.97.

Question: How did the Protection factors [1] turn out when `CC1(C)CCN(c2ccc(C(=O)O)c(NC(=O)c3cc(O)c(C(=O)O)cc3C(=O)O)c2)CC1` [4-{[2-carboxy-5-(4,4-dimethylpiperidin-1-yl)phenyl]carbamoyl}-6-hydroxybenzene-1,3-dicarboxylic acid] was run?
Answer: The Protection factors was 4.33.

Question: How did the pIC50 [2] turn out when `CS(=O)(=O)NC(=O)c1ccc2c(c1)C(=O)N(c1cc(-c3ccc(F)c(F)c3)ccc1C(=O)O)C2` [Compound 106, 3′,4′-Difluoro-3-(6-methanesulfonylaminocarbonyl-1-oxo-1,3-dihydroisoindol-2-yl)biphenyl-4-carboxylic Acid] was run?
Answer: Its pIC50 is 5.30 to 5.70.

Question: With `CC(CN(C)C)OC(=O)c1ccc(-c2ccc(Cl)cc2Cl)cc1NC(=O)c1cc(O)c(C(=O)O)cc1C(=O)O` (centres unmarked) [Example 65, 4-{[2′,4′-dichloro-4-({[1-(dimethylamino)propan-2-yl]oxy}carbonyl)-[1,1′-biphenyl]-3-yl]carbamoyl}-6-hydroxybenzene-1,3-dicarboxylic acid] as the compound, how does the pIC50 [2] read?
Answer: The pIC50 was > 6.30.

Question: `CS(=O)(=O)NC(=O)c1ccc2c(c1)C(=O)N(c1cc(-c3ccc(F)c(F)c3)ccc1C(N)=O)C2` [Compound 107, 3′,4′-Difluoro-3-(6-methanesulfonylaminocarbonyl-1-oxo-1,3-dihydroisoindol-2-yl)biphenyl-4-carboxylic acid amide] was tested. Which pIC50 [2] did it give?
Answer: Its pIC50 is > 4.70.

Question: `CC1(C)CCN(c2ccc(C(=O)O)c(NC(=O)c3cc(O)c(C(=O)O)cc3C(=O)O)c2)CC1` [Example 53, 4-{[2-carboxy-5-(4,4-dimethylpiperidin-1-yl)phenyl]carbamoyl}-6-hydroxybenzene-1,3-dicarboxylic acid] was tested. Which pIC50 [2] did it give?
Answer: The pIC50 was > 6.30.

Question: With `CN(C)CCOC(=O)c1ccc(-c2ccc(Cl)cc2Cl)cc1NC(=O)c1ccc(C(=O)N=S(C)(C)=O)cc1C(=O)O` as the compound, how does the Protection factors [1] read?
Answer: Its Protection factors is 1.43.

Question: With `O=C(O)c1ccc2c(c1)C(=O)N(c1cc(-c3cccc(F)c3)ccc1C(=O)O)C2=O` [Example 46] as the compound, how does the pIC50 [2] read?
Answer: The pIC50 was > 6.30.

Question: How did the pIC50 [2] turn out when `O=C(O)c1cc(C(=O)O)c(C(=O)Nc2cc(-c3ccc(Cl)cc3Cl)ccc2C(=O)O)cc1F` [Example 59, 4-({4-carboxy-2′,4′-dichloro-[1,1′-biphenyl]-3-yl}carbamoyl)-6-fluorobenzene-1,3-dicarboxylic acid] was run?
Answer: The pIC50 was > 6.30.

Question: With `O=C(O)c1ccc(-c2ccc(F)c(F)c2)cc1NC(=O)c1cc(-c2cnn[nH]2)ccc1C(=O)O` [Example 21, 3-(2-carboxy-5-(1H-1,2,3-triazol-5-yl)benzamido)-3′,4′-difluoro-[1,1′-biphenyl]-4-carboxylic acid] as the compound, how does the pIC50 [2] read?
Answer: The pIC50 was > 6.30.

Question: `O=C(O)c1cc(-c2cncnc2)ccc1N1C(=O)c2ccc(-c3c[nH]nn3)cc2C1=O` [Example 64] was tested. Which pIC50 [2] did it give?
Answer: Its pIC50 is > 4.70.

Question: `COc1ccc(-c2c(C)sc(N3C(=O)c4ccc(C(=O)NS(=O)(=O)c5ccccc5)cc4C3=O)c2C#N)cc1` [Example 13, N-{2-[3-Cyano-4-(4-methoxyphenyl)-5-methylthiophen-2-yl]-1,3-dioxo-2,3-dihydro-1H-isoindole-5-carbonyl}-benzenesulfonamide] was tested. Which pIC50 [2] did it give?
Answer: Its pIC50 is 4.70 to 5.30.

Question: With `CC(C)OC(=O)c1ccc(-c2ccccc2)cc1N1C(=O)c2ccc(-c3nnn[nH]3)cc2C1=O` [Compound 96, 3-[1,3-Dioxo-5-(1H-tetrazol-5-yl)-1,3-dihydroisoindol-2-yl]biphenyl-4-carboxylic acid isopropyl ester] as the compound, how does the pIC50 [2] read?
Answer: Its pIC50 is 4.70 to 5.30.

Question: With `O=C(O)c1ccc2c(c1)C(=O)N(c1cc(-c3cccs3)ccc1C(=O)O)C2=O` [Example 48, 2-(2-Carboxy-5-thiophen-2-yl-phenyl)-1,3-dioxo-2,3-dihydro-1H-isoindole-5-carboxylic Acid] as the compound, how does the pIC50 [2] read?
Answer: The pIC50 was > 6.30.

Question: With `CS(=O)(=O)Nc1ccc2c(c1)C(=O)N(c1cc(-c3ccc(F)c(F)c3)ccc1C(=O)O)C2` [Compound 131, 3′,4′-Difluoro-3-(6-methanesulfonylamino-1-oxo-1,3-dihydro-isoindol-2-yl)-biphenyl-4-carboxylic Acid] as the compound, how does the pIC50 [2] read?
Answer: The pIC50 was > 4.70.

Question: `NCCOC(=O)c1ccc(-c2ccccc2)cc1N1C(=O)c2ccc(-c3c[nH]nn3)cc2C1=O` [Compound 72, 3-[1,3-Dioxo-5-(1H-[1,2,3]triazol-4-yl)-1,3-dihydroisoindol-2-yl]biphenyl-4-carboxylic Acid 2-amino-ethyl ester] was tested. Which pIC50 [2] did it give?
Answer: Its pIC50 is > 4.70.

Question: Which Protection factors [1] does the source give for `O=C(O)c1cc(C(=O)O)c(C(=O)Nc2cc(-c3ccc(Cl)cc3Cl)ccc2C(=O)O)cc1O` [4-({4-carboxy-2′,4′-dichloro-[1,1′-biphenyl]-3-yl}carbamoyl)-6-hydroxybenzene-1,3-dicarboxylic acid] here?
Answer: The Protection factors was 8.07.

Question: How did the pIC50 [2] turn out when `O=C1c2ccc(-c3c[nH]nn3)cc2C(=O)N1c1cc(-c2ccc(F)cc2)ccn1` [Compound 87, 2-[4-(4-Fluorophenyl)-pyridin-2-yl]-5-(1H-[1,2,3]triazol-4-yl)-isoindole-1,3-dione] was run?
Answer: Its pIC50 is 4.70 to 5.30.

Question: With `O=C(O)c1cc2c(cc1O)C(=O)N(c1cc(-c3ccc(F)c(F)c3)ccc1C(=O)O)C2=O` [Compound 144a, 2-(4-Carboxy-3′,4′-difluoro[1,1′-biphenyl]-3-yl)-6-hydroxy-1,3-dioxo-2,3-dihydro-1H-isoindole-5-carboxylic acid] as the compound, how does the pIC50 [2] read?
Answer: Its pIC50 is > 6.30.

Question: And the pIC50 [3]?
Answer: The pIC50 was > 6.30.

Question: With `COc1ccc(-c2c(C)sc(N3C(=O)c4ccc(C(=O)N[C@@H](CCC(N)=O)C(=O)O)cc4C3=O)c2C#N)cc1` [Example 21] as the compound, how does the pIC50 [2] read?
Answer: Its pIC50 is 4.70 to 5.30.

Question: How did the pIC50 [2] turn out when `O=C(O)c1ccc2c(c1)C(=O)N(c1cc(-c3cccnc3)ccc1C(=O)O)C2=O` [Example 52] was run?
Answer: The pIC50 was > 6.30.
